Test results taken from ChEMBL document CHEMBL4765443, “Covalent and noncovalent constraints yield a figure eight-like conformation of a peptide inhibiting the menin-MLL interaction” (Eur J Med Chem, 2020).
Positions of bridges follow the written chain, without caps; N, C: chain ends. Non-standard residues stand in square brackets, D forms with d. Residues, ends and D or L forms follow the SMILES beside them. Phe(3-F) = N[C@@H](Cc1cccc(F)c1)C(=O)O; AllylGly = C=CC[C@H](N)C(=O)O; Ac4c = NC1(C(=O)O)CCC1

Experiments:
[1] = target: T1, Menin/Histone-lysine N-methyltransferase MLL (Homo sapiens, UniProt O00255); test: Inhibition of Menin-MLL protein-protein interaction (unknown origin) preincubated for 1 hr in presence of FLSN-MLL4-43 peptide followed by compound addition and measured after 1 hr by fluorescence polarization assay
[2] = target: T1, Menin/Histone-lysine N-methyltransferase MLL; test: Inhibition of Menin-MLL protein-protein interaction (unknown origin) preincubated for 1 hr in presence of FLSN-MBM1 peptide followed by compound addition and measured after 1 hr by fluorescence polarization assay

T1 sequence (O00255 whole entry): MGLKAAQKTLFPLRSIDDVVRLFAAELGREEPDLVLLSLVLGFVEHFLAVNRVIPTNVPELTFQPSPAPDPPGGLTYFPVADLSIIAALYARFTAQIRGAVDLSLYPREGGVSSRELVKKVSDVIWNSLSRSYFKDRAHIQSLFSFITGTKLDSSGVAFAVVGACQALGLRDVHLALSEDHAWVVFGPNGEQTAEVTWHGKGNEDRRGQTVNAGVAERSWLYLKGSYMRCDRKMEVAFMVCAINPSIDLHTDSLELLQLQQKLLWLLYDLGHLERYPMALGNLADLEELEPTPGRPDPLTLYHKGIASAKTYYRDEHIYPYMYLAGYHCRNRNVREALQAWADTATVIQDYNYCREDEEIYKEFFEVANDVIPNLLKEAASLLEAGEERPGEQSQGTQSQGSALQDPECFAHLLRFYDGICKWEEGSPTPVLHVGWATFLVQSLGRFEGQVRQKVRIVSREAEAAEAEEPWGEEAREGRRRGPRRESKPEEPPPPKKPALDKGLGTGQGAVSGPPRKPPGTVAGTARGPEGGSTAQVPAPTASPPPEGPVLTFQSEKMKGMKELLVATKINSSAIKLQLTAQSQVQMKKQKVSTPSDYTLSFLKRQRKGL
T1 sequence (Q03164 1-2718 partner limits assumed): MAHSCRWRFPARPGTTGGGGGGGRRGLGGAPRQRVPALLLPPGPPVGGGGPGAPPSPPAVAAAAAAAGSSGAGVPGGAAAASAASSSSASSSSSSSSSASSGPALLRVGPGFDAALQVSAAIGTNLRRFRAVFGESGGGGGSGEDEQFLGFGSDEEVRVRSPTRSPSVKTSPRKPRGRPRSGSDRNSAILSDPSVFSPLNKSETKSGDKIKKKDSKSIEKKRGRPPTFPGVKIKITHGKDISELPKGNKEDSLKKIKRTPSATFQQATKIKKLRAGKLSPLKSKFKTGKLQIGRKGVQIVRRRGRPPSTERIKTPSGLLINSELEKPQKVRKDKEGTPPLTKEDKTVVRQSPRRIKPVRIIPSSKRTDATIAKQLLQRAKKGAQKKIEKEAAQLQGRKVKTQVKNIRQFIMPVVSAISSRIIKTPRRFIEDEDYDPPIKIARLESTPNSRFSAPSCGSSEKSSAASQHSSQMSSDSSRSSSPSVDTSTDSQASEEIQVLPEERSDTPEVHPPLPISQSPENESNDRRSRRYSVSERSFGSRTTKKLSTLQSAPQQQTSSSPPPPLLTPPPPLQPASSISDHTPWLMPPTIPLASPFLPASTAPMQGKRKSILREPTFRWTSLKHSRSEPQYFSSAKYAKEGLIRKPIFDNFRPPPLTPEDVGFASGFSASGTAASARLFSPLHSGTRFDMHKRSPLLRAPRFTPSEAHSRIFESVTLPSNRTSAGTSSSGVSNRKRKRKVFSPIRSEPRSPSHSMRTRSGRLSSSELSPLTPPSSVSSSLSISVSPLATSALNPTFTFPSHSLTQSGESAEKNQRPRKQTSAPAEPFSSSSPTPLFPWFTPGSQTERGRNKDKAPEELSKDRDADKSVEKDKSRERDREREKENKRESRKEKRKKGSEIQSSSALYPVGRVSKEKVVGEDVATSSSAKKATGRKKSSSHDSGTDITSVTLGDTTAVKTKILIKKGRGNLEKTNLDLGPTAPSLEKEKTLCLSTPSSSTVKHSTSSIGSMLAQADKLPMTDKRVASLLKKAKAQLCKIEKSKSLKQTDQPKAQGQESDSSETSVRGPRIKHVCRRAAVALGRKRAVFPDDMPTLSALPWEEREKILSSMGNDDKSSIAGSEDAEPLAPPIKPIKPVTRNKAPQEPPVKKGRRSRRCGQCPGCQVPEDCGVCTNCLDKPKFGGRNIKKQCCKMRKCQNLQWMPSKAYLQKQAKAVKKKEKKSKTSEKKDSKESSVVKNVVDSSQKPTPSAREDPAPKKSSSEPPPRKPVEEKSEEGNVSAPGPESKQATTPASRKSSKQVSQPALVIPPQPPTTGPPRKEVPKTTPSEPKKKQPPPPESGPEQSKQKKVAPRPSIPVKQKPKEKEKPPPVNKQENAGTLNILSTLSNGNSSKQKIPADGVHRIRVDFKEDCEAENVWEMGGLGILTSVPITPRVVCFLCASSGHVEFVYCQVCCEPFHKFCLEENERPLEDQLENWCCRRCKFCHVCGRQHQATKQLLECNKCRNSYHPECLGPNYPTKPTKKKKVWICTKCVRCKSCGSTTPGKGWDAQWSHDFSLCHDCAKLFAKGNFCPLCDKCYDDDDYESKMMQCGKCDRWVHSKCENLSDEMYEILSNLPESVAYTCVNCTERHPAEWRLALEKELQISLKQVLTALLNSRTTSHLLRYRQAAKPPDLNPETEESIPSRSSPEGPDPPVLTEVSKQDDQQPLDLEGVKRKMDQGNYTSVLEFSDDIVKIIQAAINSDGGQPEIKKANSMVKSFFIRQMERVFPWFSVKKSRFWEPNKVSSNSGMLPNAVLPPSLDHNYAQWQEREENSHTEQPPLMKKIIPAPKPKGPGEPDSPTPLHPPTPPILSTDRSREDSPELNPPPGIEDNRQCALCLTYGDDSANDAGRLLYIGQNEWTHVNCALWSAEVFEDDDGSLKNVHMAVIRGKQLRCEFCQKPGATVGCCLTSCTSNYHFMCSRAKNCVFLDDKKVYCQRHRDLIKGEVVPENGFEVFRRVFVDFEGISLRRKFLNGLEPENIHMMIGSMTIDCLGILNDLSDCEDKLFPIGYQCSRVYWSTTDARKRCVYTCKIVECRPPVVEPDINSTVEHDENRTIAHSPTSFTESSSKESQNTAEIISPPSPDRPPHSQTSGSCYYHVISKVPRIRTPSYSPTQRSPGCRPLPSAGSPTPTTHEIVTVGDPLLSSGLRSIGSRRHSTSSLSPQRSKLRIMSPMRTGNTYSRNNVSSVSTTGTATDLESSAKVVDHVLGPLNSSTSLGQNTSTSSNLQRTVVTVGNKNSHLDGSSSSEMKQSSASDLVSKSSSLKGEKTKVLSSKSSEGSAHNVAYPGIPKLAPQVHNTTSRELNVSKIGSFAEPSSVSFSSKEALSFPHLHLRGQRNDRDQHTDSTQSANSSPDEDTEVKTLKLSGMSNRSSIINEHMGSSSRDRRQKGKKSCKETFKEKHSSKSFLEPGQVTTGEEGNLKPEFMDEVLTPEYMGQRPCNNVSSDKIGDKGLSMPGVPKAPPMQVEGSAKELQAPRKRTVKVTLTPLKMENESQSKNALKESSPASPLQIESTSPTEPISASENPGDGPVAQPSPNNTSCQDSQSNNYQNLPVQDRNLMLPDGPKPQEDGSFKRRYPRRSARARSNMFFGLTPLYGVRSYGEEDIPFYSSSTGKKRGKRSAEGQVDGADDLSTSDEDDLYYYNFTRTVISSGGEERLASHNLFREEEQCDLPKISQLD
T1 sequence (Q03164 2719-3969 partner limits assumed): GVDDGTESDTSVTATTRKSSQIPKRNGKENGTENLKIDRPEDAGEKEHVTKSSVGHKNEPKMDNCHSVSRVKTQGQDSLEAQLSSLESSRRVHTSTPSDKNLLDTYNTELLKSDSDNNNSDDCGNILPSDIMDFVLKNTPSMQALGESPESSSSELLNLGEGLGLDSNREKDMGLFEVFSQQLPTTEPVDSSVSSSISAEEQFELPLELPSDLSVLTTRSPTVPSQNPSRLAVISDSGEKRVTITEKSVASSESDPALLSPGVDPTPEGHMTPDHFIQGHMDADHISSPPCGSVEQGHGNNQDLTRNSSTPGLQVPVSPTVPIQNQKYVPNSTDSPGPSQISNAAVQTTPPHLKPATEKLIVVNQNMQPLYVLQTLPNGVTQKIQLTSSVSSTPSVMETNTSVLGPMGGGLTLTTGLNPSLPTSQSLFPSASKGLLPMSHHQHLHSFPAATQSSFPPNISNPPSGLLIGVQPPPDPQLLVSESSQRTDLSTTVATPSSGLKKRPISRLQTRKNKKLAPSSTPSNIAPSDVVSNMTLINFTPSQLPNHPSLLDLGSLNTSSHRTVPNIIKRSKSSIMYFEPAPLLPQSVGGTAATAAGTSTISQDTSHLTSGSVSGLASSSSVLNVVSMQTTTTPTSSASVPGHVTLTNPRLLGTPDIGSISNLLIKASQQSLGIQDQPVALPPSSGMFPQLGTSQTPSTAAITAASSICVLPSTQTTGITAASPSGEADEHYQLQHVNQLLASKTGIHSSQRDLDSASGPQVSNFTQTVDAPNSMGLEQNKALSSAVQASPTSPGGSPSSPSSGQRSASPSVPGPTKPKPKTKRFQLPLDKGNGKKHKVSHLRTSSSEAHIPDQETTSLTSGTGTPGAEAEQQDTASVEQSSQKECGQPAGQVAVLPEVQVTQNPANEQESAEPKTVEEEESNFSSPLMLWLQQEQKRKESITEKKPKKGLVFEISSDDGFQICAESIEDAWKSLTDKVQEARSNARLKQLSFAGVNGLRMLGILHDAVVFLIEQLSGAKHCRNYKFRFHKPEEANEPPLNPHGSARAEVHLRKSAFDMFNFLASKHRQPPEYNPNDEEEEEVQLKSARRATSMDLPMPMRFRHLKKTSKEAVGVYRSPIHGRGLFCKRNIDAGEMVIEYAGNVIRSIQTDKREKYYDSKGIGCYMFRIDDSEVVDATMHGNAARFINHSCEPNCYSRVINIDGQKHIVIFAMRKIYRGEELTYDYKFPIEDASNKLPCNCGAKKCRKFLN

IC50 [1]: 657 nM | IC50 [2]: 64 nM
SMILES: CC(=O)N[C@@H](CO)C(=O)N[C@@H](C)C(=O)N[C@@H](CCCNC(=N)N)C(=O)N[C@@H](Cc1c[nH]c2ccccc12)C(=O)N[C@H]1C/C=C\C[C@@H](C(=O)N2CCC[C@H]2C(=O)N[C@@H](CCCNC(=N)N)C(N)=O)NC(=O)C2(CCC2)NC(=O)[C@@H]2CCCN2C(=O)[C@H](Cc2cccc(F)c2)NC1=O (Ac-SARW[AllylGly][Phe(3-F)]P[Ac4c][AllylGly]PR-NH2; staple (Z) 5-9)
